{"source": "patent US12187713B2", "about": "“Immunomodulators, compositions and methods thereof” (Betta Pharmaceuticals Co., Ltd, priority 2019, dated 2025)", "molecular_target": "PD-1/PD-L1 (Homo sapiens (Human), UniProt Q9NZQ7)", "sequence (Q9NZQ7 19-238)": "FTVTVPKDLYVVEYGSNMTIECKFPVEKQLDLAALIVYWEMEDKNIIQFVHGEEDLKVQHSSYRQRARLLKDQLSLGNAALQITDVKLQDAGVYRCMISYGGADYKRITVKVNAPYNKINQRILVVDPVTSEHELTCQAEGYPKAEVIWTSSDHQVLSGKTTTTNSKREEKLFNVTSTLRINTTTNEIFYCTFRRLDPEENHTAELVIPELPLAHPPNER", "assay": "PD-1/PD-L1 Binding Assay (Alphascreen)", "description": "PD-1/PD-L1 Binding Assay (Alphascreen)\nThe assays were conducted in a standard black 384-well polystyrene plate with a final volume of 20 μL. Inhibitors were first serially diluted in DMSO and then added to the plate wells before the addition of other reaction components. The final concentration of DMSO in the assay was […]. Add 100 nL/well of compound to the 384 reaction plate (6008280, PerkinElmer) with Echo and centrifuge at 1000 rpm for 1 minute. Add 5 μL/well 4×PD-L1 solutions to the 384 reaction plate, centrifuge at 1000 rpm for 1 minute, and add 5 μL/well 4×PD-1 solutions, centrifuge at 1000 rpm for 1 minute, and incubate at 25° C. for 15 minutes. The concentrations of the compounds were 300, 100, 33.33, 11.11, 3.70, 1.23, 0.41, 0.137, 0.046, 0.015, 0 nM, respectively. Add 10 μL/well 2× Anti-6×His AlphaLISA Acceptor beads and Streptavidin Donor beads solution (PerkinElmer-AL356F) to the above 384 reaction plate, centrifuge at 1000 rpm for 1 minute, and incubate at 25° C. in the dark for 120 minutes. Read the AlphaLISA signal value using the Envision Reader. IC50 determination was performed by fitting the curve of percent control activity versus the log of the inhibitor concentration using the GraphPad Prism 8.0 software."}
{"smiles": "Cc1c(COc2cc(OCc3cncc(OC(F)F)c3)c(CN3CC[C@@H](O)C3)cc2Cl)cccc1-c1cccc(-c2nc3cc(CN4CCC[C@H]4C(=O)O)c(OC(F)F)cc3o2)c1C", "note": "[Example 208, ((2-(3′-((2-chloro-5-((5-(difluoromethoxy)pyridin-3-yl)methoxy)-4-(((R)-3-hydroxypyrrolidin-1-yl)methyl)phenoxy)methyl)-2,2′-dimethyl-[1,1′-biphenyl]-3-yl)-6-(difluoromethoxy)benzo[d]oxazol-5-yl)methyl)-L-proline]", "values": [{"measurement": "IC50", "setting": "numeric values", "value": 114, "unit": "nM"}]}
{"smiles": "Cc1c(-c2nc3c(o2)CCN(C(C)C(=O)O)C3)cccc1-c1cccc(-c2nc3cc(CN4CCC[C@H]4C(=O)O)c(OC(F)F)cc3o2)c1C", "note": "(stereo partly drawn) [Example 186, ((2-(3′-(5-(1-carboxyethyl)-4,5,6,7-tetrahydrooxazolo[4,5-c]pyridin-2-yl)-2,2′-dimethyl-[1,1′-biphenyl]-3-yl)-6-(difluoromethoxy)benzo[d]oxazol-5-yl)methyl)-L-proline]", "values": [{"measurement": "IC50", "setting": "range symbols", "value": "0.1 to 5", "unit": "nM"}]}
{"smiles": "Cc1c(-c2nc3cc(CN4CCC[C@H]4C(=O)O)c(OC(F)F)cc3o2)cccc1-c1cccc(-c2nc3cc(CN4CC(N(C)C)C4)cc(C#N)c3o2)c1C", "note": "[Example 134, ((2-(3′-(7-cyano-5-((3-(dimethylamino)azetidin-1-yl)methyl)benzo[d]oxazol-2-yl)-2,2′-dimethyl-[1,1′-biphenyl]-3-yl)-6-(difluoromethoxy)benzo[d]oxazol-5-yl)methyl)-L-proline]", "values": [{"measurement": "IC50", "setting": "range symbols", "value": "0.1 to 5", "unit": "nM"}]}
{"smiles": "Cc1c(-c2nc3cc(CN4CCC[C@H]4C(=O)O)c(OC(F)F)cc3o2)cccc1-c1cccc(-c2nc3cc(CNCC4CNC4)cc(C#N)c3o2)c1C", "note": "[Example 157]", "values": [{"measurement": "IC50", "setting": "range symbols", "value": "0.1 to 5", "unit": "nM"}]}
{"smiles": "Cc1c(-c2nc3cc(CN4CCC[C@H]4C(=O)O)c(OC(F)F)cc3o2)cccc1-c1cccc(-c2ccc(CN3CCCC3)cc2F)c1C", "note": "[Example 220, ((6-(difluoromethoxy)-2-(2″-fluoro-2,2′-dimethyl-4″-(pyrrolidin-1-ylmethyl)-[1,1′:3′,1″- terphenyl]-3-yl)benzo[d]oxazol-5-yl)methyl)proline]", "values": [{"measurement": "IC50", "setting": "range symbols", "value": "0.1 to 5", "unit": "nM"}]}
{"smiles": "Cc1c(-c2nc3cc(CN4CCC[C@H]4C(=O)O)c(OC(F)F)cc3o2)cccc1-c1cccc(-c2nc3cc(CNCc4cn(C)cn4)cc(C#N)c3o2)c1C", "note": "[Example 160, ((2-(3′-(7-cyano-5-((((1-methyl-1H-imidazol-4-yl)methyl)amino)methyl)benzo[d]oxazol-2-yl)-2,2′-dimethyl-[1,1′-biphenyl]-3-yl)-6-(difluoromethoxy)benzo[d]oxazol-5-yl)methyl)-L-proline]", "values": [{"measurement": "IC50", "setting": "range symbols", "value": "0.1 to 5", "unit": "nM"}]}
{"smiles": "Cc1c(-c2nc3cc(CN4CCC[C@H]4C(=O)O)c(OC(F)F)cc3o2)cccc1-c1cccc(-c2nc3cc(CN4CCCC4)c(OC(F)F)cc3o2)c1F", "note": "[Example 6, ((6-(difluoromethoxy)-2-(3′-(6-(difluoromethoxy)-5-(pyrrolidin-1-ylmethyl)benzo[d]oxazol-2-yl)-2′-fluoro-2-methyl-[1,1′-biphenyl]-3-yl)benzo[d]oxazol-5-yl)methyl)-L-proline]", "values": [{"measurement": "IC50", "setting": "numeric values", "value": 4.3, "unit": "nM"}]}
{"smiles": "Cc1c(-c2nc3cc(CN4CCC[C@H]4C(=O)O)c(OC(F)F)cc3o2)cccc1-c1cccc(-c2nc3cc(CNCC4CCC(=O)N4)cnc3o2)c1C", "note": "(stereo partly drawn) [Example 115, ((6-(difluoromethoxy)-2-(2,2′-dimethyl-3′-(6-((((5-oxopyrrolidin-2-yl)methyl)amino)methyl)oxazolo[5,4-b]pyridin-2-yl)-[1,1′-biphenyl]-3-yl)benzo[d]oxazol-5-yl)methyl)-L-proline]", "values": [{"measurement": "IC50", "setting": "range symbols", "value": "0.1 to 5", "unit": "nM"}]}
{"smiles": "Cc1c(-c2ccc(CN3CCCC3)c(OCC3CC3)c2)cccc1-c1cccc(-c2nc3cc(CN4CCC[C@H]4C(=O)O)c(OC(F)F)cc3o2)c1C", "note": "[Example 250, ((2-(3″-(cyclopropylmethoxy)-2,2′-dimethyl-4″- (pyrrolidin-1-ylmethyl)-[1,1′:3′,1″-terphenyl]-3-yl)-6-(difluoromethoxy)benzo[d]oxazol-5-yl)methyl)proline]", "values": [{"measurement": "IC50", "setting": "range symbols", "value": "0.1 to 5", "unit": "nM"}]}
{"smiles": "COc1nc(-c2cccc(-c3cccc(-c4nc5cc(CN6CCC[C@H]6C(=O)O)c(OC(F)F)cc5o4)c3C)c2C)ccc1CN1C2CCC1CC2", "note": "[Example 278, ((2-(3′-(5-(((1s,4s)-7-azabicyclo[2.2.1]heptan-7-yl)methyl)-6-methoxypyridin-2-yl)-2,2′-dimethyl-[1,1′-biphenyl]-3-yl)-6-(difluoromethoxy)benzo[d]oxazol-5-yl)methyl)-L-proline]", "values": [{"measurement": "IC50", "setting": "range symbols", "value": "0.1 to 5", "unit": "nM"}]}
{"smiles": "Cc1c(-c2ccc(CN3CCCC3)c(Cl)c2)cccc1-c1cccc(-c2nc3cc(CN4CCC[C@H]4C(=O)O)c(OC(F)F)cc3o2)c1C", "note": "[Example 229, ((2-(3″-chloro-2,2′-dimethyl-4″-(pyrrolidin-1-ylmethyl)-[1,1′:3′,1″-terphenyl]-3-yl)-6-(difluoromethoxy)benzo[d]oxazol-5-yl)methyl)-L-proline]", "values": [{"measurement": "IC50", "setting": "numeric values", "value": 6.9, "unit": "nM"}]}
{"smiles": "Cc1c(-c2nc3cc(CN4CCC[C@@H]4C(=O)O)c(OC(F)F)cc3o2)cccc1-c1cccc(-c2nc3cc(CN4CCC(C#N)C4)cc(C#N)c3o2)c1C", "note": "(stereo partly drawn) [Example 143, ((2-(3′-(7-cyano-5-((3-cyanopyrrolidin-1-yl)methyl)benzo[d]oxazol-2-yl)-2,2′-dimethyl-[1,1′-biphenyl]-3-yl)-6-(difluoromethoxy)benzo[d]oxazol-5-yl)methyl)-D-proline]", "values": [{"measurement": "IC50", "setting": "range symbols", "value": "0.1 to 5", "unit": "nM"}]}
{"smiles": "Cc1c(-c2nc3cc(CN(C)[C@@H]4CCC[C@@H]4O)c(OC(F)F)cc3o2)cccc1-c1cccc(-c2nc3cc(CN4CCC[C@@H]4C(=O)O)c(OC(F)F)cc3o2)c1C", "note": "[Example 26, ((6-(difluoromethoxy)-2-(3′-(6-(difluoromethoxy)-5-((((1R,2S)-2-hydroxycyclopentyl) (methyl)amino)methyl)benzo[d]oxazol-2-yl)-2,2′-dimethyl-[1,1′-biphenyl]-3-yl)benzo[d]oxazol-5-yl)methyl)-D-proline]", "values": [{"measurement": "IC50", "setting": "range symbols", "value": "0.1 to 5", "unit": "nM"}]}
{"smiles": "Cc1c(Nc2nccc3cc(CNCC4CCC(=O)N4)cnc23)cccc1-c1cccc(-c2nc3cc(CN4CCC[C@H]4C(=O)O)c(OC(F)F)cc3o2)c1C", "note": "(stereo partly drawn) [Example 179, ((6-(difluoromethoxy)-2-(2,2′-dimethyl-3′-((3-((((5-oxopyrrolidin-2-yl)methyl)amino)methyl)-1,7-naphthyridin-8-yl)amino)-[1,1′-biphenyl]-3-yl)benzo[d]oxazol-5-yl)methyl)proline]", "values": [{"measurement": "IC50", "setting": "range symbols", "value": "0.1 to 5", "unit": "nM"}]}
{"smiles": "Cc1cc(-c2cccc(-c3cccc(-c4nc5cc(CN6CCC[C@H]6C(=O)O)c(OC(F)F)cc5o4)c3C)c2C)ccc1CN1CCCC1", "note": "[Example 218, ((6-(difluoromethoxy)-2-(2,2′,3″-trimethyl-4″- (pyrrolidin-1-ylmethyl)-[1,1′:3′,1″-terphenyl]-3-yl)benzo[d]oxazol-5-yl)methyl)proline]", "values": [{"measurement": "IC50", "setting": "range symbols", "value": "0.1 to 5", "unit": "nM"}]}
{"smiles": "Cc1c(-c2nc3cc(CN4CCC[C@H]4C(=O)O)c(OC(F)F)cc3o2)cccc1-c1cccc(-c2nc3cc(CN4CCC(C)(F)C4)cc(C#N)c3o2)c1C", "note": "(stereo partly drawn) [Example 167, ((2-(3′-(7-cyano-5-((3-fluoro-3-methylpyrrolidin-1-yl)methyl)benzo[d]oxazol-2-yl)-2,2′-dimethyl-[1,1′-biphenyl]-3-yl)-6-(difluoromethoxy)benzo[d]oxazol-5-yl)methyl)-L-proline]", "values": [{"measurement": "IC50", "setting": "range symbols", "value": "5 to 50", "unit": "nM"}]}
{"smiles": "CCNCc1cc2nc(-c3cccc(-c4cccc(-c5nc6cc(CN7CCC[C@H]7C(=O)O)c(OC(F)F)cc6o5)c4C)c3C)oc2cc1Cl", "note": "[Example 97, ((2-(3′-(6-chloro-5-((ethylamino)methyl)benzo[d]oxazol-2-yl)-2,2′-dimethyl-[1,1′-biphenyl]-3-yl)-6-(difluoromethoxy)benzo[d]oxazol-5-yl)methyl)-L-proline]", "values": [{"measurement": "IC50", "setting": "range symbols", "value": "0.1 to 5", "unit": "nM"}]}
{"smiles": "Cc1c(-c2nc3cc(CN4CCC[C@H]4C(=O)O)c(OC(F)F)cc3o2)cccc1-c1cccc(-c2nc3cc(CN4CC(CO)C4)cc(C#N)c3o2)c1C", "note": "[Example 137, ((2-(3′-(7-cyano-5-((3-(hydroxymethyl)azetidin-1-yl)methyl)benzo[d]oxazol-2-yl)-2,2′-dimethyl-[1,1′-biphenyl]-3-yl)-6-(difluoromethoxy)benzo[d]oxazol-5-yl)methyl)-L-proline]", "values": [{"measurement": "IC50", "setting": "range symbols", "value": "0.1 to 5", "unit": "nM"}]}
{"smiles": "Cc1c(-c2ccc(CN3Cc4ccc(NC(N)=O)cc4C3)c(F)c2)cccc1-c1cccc(-c2nc3cc(CN4CCC[C@H]4C(=O)O)c(OC(F)F)cc3o2)c1C", "note": "[Example 258, ((6-(difluoromethoxy)-2-(3″-fluoro-2,2′-dimethyl-4″-((5-ureidoisoindolin-2-yl)methyl)-[1,1′:3′,1″-terphenyl]-3-yl)benzo[d]oxazol-5-yl)methyl)-L-proline]", "values": [{"measurement": "IC50", "setting": "range symbols", "value": "5 to 50", "unit": "nM"}]}
{"smiles": "Cc1c(-c2nc3cc(CN4CCC[C@H]4C(=O)O)c(OC(F)F)cc3o2)cccc1-c1cccc(-c2cnc(CN3CCCC3)cc2F)c1C", "note": "[Example 262, ((6-(difluoromethoxy)-2-(3′-(4-fluoro-6-(pyrrolidin-1-ylmethyl)pyridin-3-yl)-2,2′-dimethyl-[1,1′-biphenyl]-3-yl)benzo[d]oxazol-5-yl)methyl)-L-proline]", "values": [{"measurement": "IC50", "setting": "range symbols", "value": "5 to 50", "unit": "nM"}]}
{"smiles": "CC1(C)CN(Cc2cc3nc(-c4cccc(-c5cccc(-c6nc7cc(CN8CCC[C@H]8C(=O)O)c(OC(F)F)cc7o6)c5C#N)c4C#N)oc3cc2OC(F)F)C1", "note": "[Example 83, ((2-(2,2′-dicyano-3′-(6-(difluoromethoxy)-5-((3,3-dimethylazetidin-1-yl)methyl)benzo[d]oxazol-2-yl)-[1,1′-biphenyl]-3-yl)-6-(difluoromethoxy)benzo[d]oxazol-5-yl)methyl)-L-proline]", "values": [{"measurement": "IC50", "setting": "range symbols", "value": "5 to 50", "unit": "nM"}]}
